Assay results reported in PMC6743422, “Preclinical disposition of MGS0274 besylate, a prodrug of a potent group II metabotropic glutamate receptor agonist MGS0008 for the treatment of schizophrenia” (Pharmacology Research & Perspectives, 2019).
Where two headings read alike, the source gives them in different places. Marks after values point to notes of the source that are not given here.

How the values were obtained:
CYP1A2 = target: T1, CYP1A2 (Homo sapiens, UniProt P05177); experiment: CYP inhibition in human liver microsomes, CYP1A2; assay type: in vitro ADME; details: human liver microsomes 0.1 mg/mL; probe Phenacetin, metabolite Acetaminophen
T1 construct: using probe substrates for each CYP isoform and human liver microsomes; from tissue; host or cells: human liver microsomes
T1 sequence (P05177 whole entry, canonical isoform): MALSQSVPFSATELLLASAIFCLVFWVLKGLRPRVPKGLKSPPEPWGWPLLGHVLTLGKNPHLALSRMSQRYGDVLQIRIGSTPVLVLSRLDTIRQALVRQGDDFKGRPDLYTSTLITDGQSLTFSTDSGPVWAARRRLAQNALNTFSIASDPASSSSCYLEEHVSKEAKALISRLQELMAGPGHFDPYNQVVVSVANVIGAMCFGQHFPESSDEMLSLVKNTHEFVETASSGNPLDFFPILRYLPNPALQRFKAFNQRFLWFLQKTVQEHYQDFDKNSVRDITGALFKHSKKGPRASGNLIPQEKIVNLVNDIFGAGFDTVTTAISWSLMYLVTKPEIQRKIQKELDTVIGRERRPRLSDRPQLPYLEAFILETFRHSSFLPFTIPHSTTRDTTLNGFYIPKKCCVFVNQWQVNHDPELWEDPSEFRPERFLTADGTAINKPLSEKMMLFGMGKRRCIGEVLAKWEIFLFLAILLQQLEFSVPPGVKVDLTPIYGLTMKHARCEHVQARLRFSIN
Method: The inhibition potential of MGS0008 (0.3‐100 µmol/L) and MGS0274 besylate (0.03‐10 µmol/L) on the activity of human cytochrome P450 (CYP) isoforms (CYP1A2, 2B6, 2C8, 2C9, 2C19, 2D6, and 3A) was investigated using probe substrates for each CYP isoform and human liver microsomes, of which the final protein concentration was set at 0.1 mg/mL (see Table S2). The assay was started by spiking the reaction mixture, which had been pre‐incubated at 37°C for 5 minutes, with NADP^+. After incubation for 5 to 10 minutes, the reaction was terminated by adding acetonitrile containing an internal standard for each probe substrate, and the resultant mixture was centrifuged. Aliquots of the supernatant were subjected to bioanalysis using LC‐MS/MS (see Table S1‐D).
The final protein concentration in the reaction mixture was set at 0.1 mg/mL. The values in parentheses represent the final concentrations of compounds added in each reaction mixture. […]

CYP2B6 = target: T2, CYP2B6 (Homo sapiens, UniProt P20813); experiment: CYP inhibition in human liver microsomes, CYP2B6; assay type: in vitro ADME; details: human liver microsomes 0.1 mg/mL; probe Bupropion, metabolite Hydroxybupropion
T2 construct: using probe substrates for each CYP isoform and human liver microsomes; from tissue; host or cells: human liver microsomes
T2 sequence (P20813 whole entry, canonical isoform): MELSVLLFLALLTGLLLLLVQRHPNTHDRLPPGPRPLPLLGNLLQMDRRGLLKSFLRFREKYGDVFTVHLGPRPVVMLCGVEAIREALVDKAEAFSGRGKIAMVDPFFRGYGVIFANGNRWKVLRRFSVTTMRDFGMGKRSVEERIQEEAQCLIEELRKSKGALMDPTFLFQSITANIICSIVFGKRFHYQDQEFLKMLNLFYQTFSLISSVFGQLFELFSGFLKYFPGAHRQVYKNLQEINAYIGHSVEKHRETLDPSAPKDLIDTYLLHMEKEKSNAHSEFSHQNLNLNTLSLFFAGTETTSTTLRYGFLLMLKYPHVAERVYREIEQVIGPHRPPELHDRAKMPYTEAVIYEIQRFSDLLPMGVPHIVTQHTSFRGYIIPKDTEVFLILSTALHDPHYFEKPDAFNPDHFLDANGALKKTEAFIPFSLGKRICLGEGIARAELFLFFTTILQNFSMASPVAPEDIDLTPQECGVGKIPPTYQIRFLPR

CYP2C8 = target: T3, CYP2C8 (Homo sapiens, UniProt P10632); experiment: CYP inhibition in human liver microsomes, CYP2C8; assay type: in vitro ADME; details: human liver microsomes 0.1 mg/mL; probe Amodiaquine, metabolite N-desethylamodiaquine
T3 construct: using probe substrates for each CYP isoform and human liver microsomes; from tissue; host or cells: human liver microsomes
T3 sequence (P10632 whole entry, canonical isoform): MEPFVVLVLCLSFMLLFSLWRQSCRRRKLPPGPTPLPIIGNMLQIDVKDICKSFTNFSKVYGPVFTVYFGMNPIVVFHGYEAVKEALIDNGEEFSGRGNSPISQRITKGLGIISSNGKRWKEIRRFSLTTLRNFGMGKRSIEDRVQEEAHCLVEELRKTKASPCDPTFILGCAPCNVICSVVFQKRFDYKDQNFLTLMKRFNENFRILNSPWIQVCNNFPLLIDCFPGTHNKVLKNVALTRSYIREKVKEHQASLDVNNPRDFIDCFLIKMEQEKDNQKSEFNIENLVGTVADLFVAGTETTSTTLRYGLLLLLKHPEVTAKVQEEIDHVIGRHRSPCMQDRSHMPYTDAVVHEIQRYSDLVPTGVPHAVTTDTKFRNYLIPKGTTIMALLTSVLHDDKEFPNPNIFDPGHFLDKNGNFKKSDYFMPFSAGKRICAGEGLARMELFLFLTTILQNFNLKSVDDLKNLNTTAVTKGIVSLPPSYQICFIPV

CYP2C9 = target: T4, CYP2C9 (Homo sapiens, UniProt P11712); experiment: CYP inhibition in human liver microsomes, CYP2C9; assay type: in vitro ADME; details: human liver microsomes 0.1 mg/mL; probe Diclofenac, metabolite 4'-Hydroxydiclofenac
T4 construct: using probe substrates for each CYP isoform and human liver microsomes; from tissue; host or cells: human liver microsomes
T4 sequence (P11712 whole entry, canonical isoform): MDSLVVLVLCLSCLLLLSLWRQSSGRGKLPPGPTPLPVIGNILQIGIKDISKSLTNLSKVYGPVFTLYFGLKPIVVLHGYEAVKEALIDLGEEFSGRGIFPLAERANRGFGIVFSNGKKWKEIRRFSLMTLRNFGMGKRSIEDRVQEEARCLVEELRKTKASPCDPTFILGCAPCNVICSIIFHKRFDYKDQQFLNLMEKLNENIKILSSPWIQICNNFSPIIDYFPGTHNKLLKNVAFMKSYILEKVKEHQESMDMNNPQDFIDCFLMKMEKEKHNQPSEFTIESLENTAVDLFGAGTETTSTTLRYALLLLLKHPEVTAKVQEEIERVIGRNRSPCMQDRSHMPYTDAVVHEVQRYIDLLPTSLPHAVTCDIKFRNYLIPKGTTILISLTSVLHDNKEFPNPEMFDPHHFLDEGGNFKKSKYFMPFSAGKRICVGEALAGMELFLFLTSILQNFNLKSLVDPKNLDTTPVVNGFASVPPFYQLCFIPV

CYP2C19 = target: T5, CYP2C19 (Homo sapiens, UniProt P33261); experiment: CYP inhibition in human liver microsomes, CYP2C19; assay type: in vitro ADME; details: human liver microsomes 0.1 mg/mL; probe (S)-Mephenytoin, metabolite 4'-Hydroxymephenytoin
T5 construct: using probe substrates for each CYP isoform and human liver microsomes; from tissue; host or cells: human liver microsomes
T5 sequence (P33261 whole entry, canonical isoform): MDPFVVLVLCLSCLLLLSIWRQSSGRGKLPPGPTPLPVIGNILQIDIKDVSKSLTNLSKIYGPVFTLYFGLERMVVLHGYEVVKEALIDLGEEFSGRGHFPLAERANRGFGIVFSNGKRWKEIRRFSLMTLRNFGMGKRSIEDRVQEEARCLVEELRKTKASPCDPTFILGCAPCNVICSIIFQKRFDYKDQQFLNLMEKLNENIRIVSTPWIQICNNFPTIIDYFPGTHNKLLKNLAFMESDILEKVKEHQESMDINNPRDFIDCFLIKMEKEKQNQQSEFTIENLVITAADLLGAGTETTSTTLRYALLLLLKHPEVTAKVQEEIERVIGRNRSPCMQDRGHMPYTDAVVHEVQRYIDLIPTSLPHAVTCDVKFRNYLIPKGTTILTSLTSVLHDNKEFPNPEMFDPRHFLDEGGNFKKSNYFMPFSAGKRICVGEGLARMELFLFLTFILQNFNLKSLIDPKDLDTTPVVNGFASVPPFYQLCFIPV

CYP2D6 = target: T6, CYP2D6 (Homo sapiens, UniProt P10635); experiment: CYP inhibition in human liver microsomes, CYP2D6; assay type: in vitro ADME; details: human liver microsomes 0.1 mg/mL; probe (±)-Bufuralol, metabolite 1'-Hydroxybufuralol
T6 construct: using probe substrates for each CYP isoform and human liver microsomes; from tissue; host or cells: human liver microsomes
T6 sequence (P10635 whole entry, canonical isoform): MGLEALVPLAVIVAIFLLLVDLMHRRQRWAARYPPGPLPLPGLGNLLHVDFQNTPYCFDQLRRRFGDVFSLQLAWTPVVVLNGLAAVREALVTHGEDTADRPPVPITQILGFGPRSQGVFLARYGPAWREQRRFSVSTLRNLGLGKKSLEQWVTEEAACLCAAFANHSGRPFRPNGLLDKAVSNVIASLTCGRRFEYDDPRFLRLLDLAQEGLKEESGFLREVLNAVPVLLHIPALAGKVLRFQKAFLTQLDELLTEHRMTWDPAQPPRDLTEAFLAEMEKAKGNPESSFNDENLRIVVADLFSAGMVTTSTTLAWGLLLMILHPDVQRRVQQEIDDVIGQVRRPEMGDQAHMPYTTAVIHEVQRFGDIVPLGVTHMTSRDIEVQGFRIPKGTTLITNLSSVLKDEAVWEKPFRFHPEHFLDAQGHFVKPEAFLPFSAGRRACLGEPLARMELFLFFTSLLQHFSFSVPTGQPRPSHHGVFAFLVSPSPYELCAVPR

[1] = tested on: CYP1A2, 2B6, 2C8, 2C9, 2C19, 2D6 and 3A; experiment: CYP inhibition in human liver microsomes, all 7 isoforms together; assay type: in vitro ADME; details: human, all the CYP isoforms tested, read-out: percent inhibition
[2] = tested on: human cytochrome P450 (CYP) isoforms (CYP1A2, 2B6, 2C8, 2C9, 2C19, 2D6, and 3A); experiment: as above; assay type: in vitro ADME; details: MGS0008 0.3-100 µmol/L, MGS0274 besylate 0.03-10 µmol/L
CYP1A2 mRNA = experiment: CYP induction in primary cultured cryopreserved human hepatocytes, CYP1A2 mRNA; assay type: in vitro ADME; details: three consecutive 24-hour treatments
Method: (§1) The primary cultured cryopreserved human hepatocytes were plated in a collagen‐coated 96‐well plate (Becton Dickinson, Franklin Lakes, NJ) with Williams’ Medium E (Invitrogen, Carlsbad, CA) containing Geltrex^TM (Invitrogen) and Maintenance Supplements (Invitrogen) and maintained in humidified air‐5% CO2 at 37°C for 3 days. Then, the cells were cultured for three consecutive 24‐hour treatments with MGS0008 (3‐30 µmol/L), with MGS0274 besylate (3‐30 µmol/L), or with positive controls (omeprazole for CYP1A2 at 50 µmol/L, phenobarbital for CYP2B6 at 1000 µmol/L, or rifampicin for CYP3A4 at 10 µmol/L). The mRNA expression levels of CYP1A2, 2B6, and 3A4 were measured using the real‐time polymerase chain reaction (RT‐PCR) method (7500 Fast RT‐PCR system; Applied Biosystems, Foster City, CA) with TaqMan® Fast Universal PCR Master Mix (probe ID: Hs00167927_m1 for CYP1A2, Hs04183483_g1 for CYP2B6, and Hs00604506_ml for CYP3A4; Applied Biosystems). The fold change in the mRNA expression was calculated using the 2^‐ΔΔCT method.22

CYP2B6 mRNA = experiment: CYP induction in primary cultured cryopreserved human hepatocytes, CYP2B6 mRNA; details: three consecutive 24-hour treatments
Method: as §1

CYP3A4 mRNA = assay type: in vitro ADME, human; details: three consecutive 24-hour treatments
Method: as §1

[3] = tested on: mRNA expression of CYP1A2, 2B6, and 3A4; experiment: CYP induction in human hepatocytes, CYP1A2, 2B6 and 3A4 together; assay type: in vitro ADME; details: 3-30 µmol/L; three lots of human hepatocytes
Method: as §1

[4] = tested on: cultured human hepatocytes; experiment: Toxicity to the cultured human hepatocytes; assay type: cell-based; details: at the concentrations tested (3-30 μM)

Structure (SMILES) | IC50 (CYP1A2) [µM] | IC50 (CYP2B6) [µM] | IC50 (CYP2C8) [µM] | IC50 (CYP2C9) [µM] | IC50 (CYP2C19) [µM] | IC50 (CYP2D6) [µM] | inhibitory potential on the CYP isoforms [2] | Fold change of mRNA expression level CYP1A2 (CYP1A2 mRNA; hepatocyte lot Hu1487, 3 μM) [fold] | Fold change of mRNA expression level CYP1A2 (CYP1A2 mRNA; hepatocyte lot Hu1487, 10 μM) [fold] | Fold change of mRNA expression level CYP1A2 (CYP1A2 mRNA; hepatocyte lot Hu1487, 30 μM) [fold] | Fold change of mRNA expression level CYP1A2 (CYP1A2 mRNA; hepatocyte lot Hu8114, 3 μM) [fold] | Fold change of mRNA expression level CYP1A2 (CYP1A2 mRNA; hepatocyte lot Hu8114, 10 μM) [fold] | Fold change of mRNA expression level CYP1A2 (CYP1A2 mRNA; hepatocyte lot Hu8114, 30 μM) [fold] | Fold change of mRNA expression level CYP1A2 (CYP1A2 mRNA; hepatocyte lot Hu8123, 3 μM) [fold] | Fold change of mRNA expression level CYP1A2 (CYP1A2 mRNA; hepatocyte lot Hu8123, 10 μM) | Fold change of mRNA expression level CYP1A2 (CYP1A2 mRNA; hepatocyte lot Hu8123, 30 μM) [fold] | Fold change of mRNA expression level CYP2B6 (CYP2B6 mRNA; hepatocyte lot Hu1487, 3 μM) [fold] | Fold change of mRNA expression level CYP2B6 (CYP2B6 mRNA; hepatocyte lot Hu1487, 10 μM) [fold] | Fold change of mRNA expression level CYP2B6 (CYP2B6 mRNA; hepatocyte lot Hu1487, 30 μM) [fold] | Fold change of mRNA expression level CYP2B6 (CYP2B6 mRNA; hepatocyte lot Hu8114, 3 μM) [fold] | other results
CC(C)[C@@H]1CC[C@@H](C)C[C@H]1OC(=O)O[C@@H](C)OC(=O)[C@H]1[C@@H]2C[C@H](F)[C@@](N)(C(=O)O)[C@@H]21.O=S(=O)(O)c1ccccc1 [MGS0274 besylate, (1S,2S,3S,5R,6S)‐2‐amino‐3‐fluoro‐6‐({(1S)‐1‐[({[(1R,2S,5R)‐5‐methyl‐2‐(propan‐2‐yl)cyclohexyl]oxy}carbonyl)oxy]ethoxy}carbonyl)bicyclo[3.1.0]hexane‐2‐carboxylic acid monobenzenesulfonate] | > 10 | > 10 | > 10 | > 10 | > 10 | > 10 | no inhibitory potential | 1.0 | 1.0 | 1.4 | 1.1 | 1.0 | 1.1 | 1.1 | 1.2 fold | 1.3 | 1.1 | 1.0 | 1.4 | 0.8 | inhibition at 10 µM ([1]; at 10 μM): < 50%; Fold change of mRNA expression level CYP2B6 (CYP2B6 mRNA; hepatocyte lot Hu8114, 10 μM): 1.0 fold; Fold change of mRNA expression level CYP2B6 (CYP2B6 mRNA; hepatocyte lot Hu8114, 30 μM): 1.5 fold; Fold change of mRNA expression level CYP2B6 (CYP2B6 mRNA; hepatocyte lot Hu8123, 3 μM): 1.7 fold; Fold change of mRNA expression level CYP2B6 (CYP2B6 mRNA; hepatocyte lot Hu8123, 10 μM): 1.8 fold; Fold change of mRNA expression level CYP2B6 (CYP2B6 mRNA; hepatocyte lot Hu8123, 30 μM): 2.4 fold; Fold change of mRNA expression level CYP3A4 (CYP3A4 mRNA; hepatocyte lot Hu1487, 3 μM): 1.4 fold; Fold change of mRNA expression level CYP3A4 (CYP3A4 mRNA; hepatocyte lot Hu1487, 10 μM): 1.5 fold; Fold change of mRNA expression level CYP3A4 (CYP3A4 mRNA; hepatocyte lot Hu1487, 30 μM): 1.8 fold; Fold change of mRNA expression level CYP3A4 (CYP3A4 mRNA; hepatocyte lot Hu8114, 3 μM): 1.1 fold; Fold change of mRNA expression level CYP3A4 (CYP3A4 mRNA; hepatocyte lot Hu8114, 10 μM): 0.9 fold; Fold change of mRNA expression level CYP3A4 (CYP3A4 mRNA; hepatocyte lot Hu8114, 30 μM): 1.1 fold; Fold change of mRNA expression level CYP3A4 (CYP3A4 mRNA; hepatocyte lot Hu8123, 3 μM): 0.8 fold; Fold change of mRNA expression level CYP3A4 (CYP3A4 mRNA; hepatocyte lot Hu8123, 10 μM): 0.8 fold; Fold change of mRNA expression level CYP3A4 (CYP3A4 mRNA; hepatocyte lot Hu8123, 30 μM): 0.9 fold; induction potential on the CYP mRNA tested [3]: no apparent induction potential; toxicity to the cultured human hepatocytes [4]: did not show detectable toxicity
N[C@]1(C(=O)O)[C@H]2[C@@H](C[C@@H]1F)[C@@H]2C(=O)O [MGS0008, (1S,2S,3S,5R,6S)‐2‐amino‐3‐fluorobicyclo[3.1.0]hexane‐2,6‐dicarboxylic acid] | > 100 | > 100 | > 100 | > 100 | > 100 | > 100 | no inhibitory potential | 0.8 | 0.7 | 1.0 | 1.1 | 1.0 | 1.1 | 0.9 | 1.1^b fold | 0.9 | 0.9 | 0.7 | 0.9 | 0.8 | inhibition at 100 µM ([1]; at 100 μM): < 50%; Fold change of mRNA expression level CYP2B6 (CYP2B6 mRNA; hepatocyte lot Hu8114, 10 μM): 0.8 fold; Fold change of mRNA expression level CYP2B6 (CYP2B6 mRNA; hepatocyte lot Hu8114, 30 μM): 1.0 fold; Fold change of mRNA expression level CYP2B6 (CYP2B6 mRNA; hepatocyte lot Hu8123, 3 μM): 1.2 fold; Fold change of mRNA expression level CYP2B6 (CYP2B6 mRNA; hepatocyte lot Hu8123, 10 μM): 1.2^b fold; Fold change of mRNA expression level CYP2B6 (CYP2B6 mRNA; hepatocyte lot Hu8123, 30 μM): 1.3 fold; Fold change of mRNA expression level CYP3A4 (CYP3A4 mRNA; hepatocyte lot Hu1487, 3 μM): 1.3 fold; Fold change of mRNA expression level CYP3A4 (CYP3A4 mRNA; hepatocyte lot Hu1487, 10 μM): 1.3 fold; Fold change of mRNA expression level CYP3A4 (CYP3A4 mRNA; hepatocyte lot Hu1487, 30 μM): 1.7 fold; Fold change of mRNA expression level CYP3A4 (CYP3A4 mRNA; hepatocyte lot Hu8114, 3 μM): 1.4 fold; Fold change of mRNA expression level CYP3A4 (CYP3A4 mRNA; hepatocyte lot Hu8114, 10 μM): 1.4 fold; Fold change of mRNA expression level CYP3A4 (CYP3A4 mRNA; hepatocyte lot Hu8114, 30 μM): 1.9 fold; Fold change of mRNA expression level CYP3A4 (CYP3A4 mRNA; hepatocyte lot Hu8123, 3 μM): 1.0 fold; Fold change of mRNA expression level CYP3A4 (CYP3A4 mRNA; hepatocyte lot Hu8123, 10 μM): 0.7 fold; Fold change of mRNA expression level CYP3A4 (CYP3A4 mRNA; hepatocyte lot Hu8123, 30 μM): 0.9 fold; induction potential on the CYP mRNA tested [3]: no apparent induction potential; toxicity to the cultured human hepatocytes [4]: did not show detectable toxicity
